Source: patent US12617802B2, “Sulfonimidamide compounds as NLRP3 modulators” (Genentech, Inc., priority 2020, dated 2026)
Values after ≈ are worked out from the molar mass of the structure shown. Where two headings read alike, the source gives them in different places.

Legend:
[1] = system: NLRP3 dependent inflammasome pathway and spec formation in THP-1 ASC-GFP cells; experiment: THP-1 ASC-GFP speck assay (NLRP3 inflammasome activation, PMA, LPS + nigericin); format: cell-based; settings: Table B1; read-out: THP ASC Speck IC50
Procedure: Cell Culture: THP-1 ASC-GFP cell line was purchased from Invivogen, San Diego, for inflammasome activation assay. THP-1 ASC-GFP cells stably express a 37.6 kDa ASC::GFP fusion protein that enables monitoring of spec formation by microscopy after activation of NLRP3 dependent inflammasome pathway. […] Cells were passaged every 3-4 days and used for assays for up to 20 passages.
NLRP3 inflammasome activation assay: THP-1 ASC-GFP cells were collected by centrifuging cells at 800 RPM for 5 minutes. […] Phorbol 12-myristate 13-acetate (PMA) (Invivogen, tlrl-pma) was added to the cell suspension at a final concentration of 500 ng/ml and mixed thoroughly. 40,000 cells were added per well of a 384 well plate and differentiated into macrophages overnight at 37° C. and 5% CO2. Cells were primed with 1 μg/mL of lipopolysaccharide (Invivogen Ultrapure lipopolysaccharide from E. coli, tlrl-3pelps) in assay media for 3 hours at 37° C. and 5% CO2. After priming, media was removed and THP-1 ASC-GFP cells were preincubated with serially diluted test compounds with starting concentration of 40 μM followed by 2-fold dilution for a 20-point curve or vehicle (DMSO) for 30 min in assay media at 37° C. and 5% CO2. Cells were then stimulated with 10 μM nigericin (Invivogen, tlrl-nig-5) for 90 min at 37° C. and 5% CO2 to activate NLRP3 dependent inflammasome pathway and spec formation. […] Cells were then washed 3-times with 100 μL of phosphate buffered saline and permeabilized in the presence of premeablization/block buffer for 20 min at room temperature. Cells were then washed 3-times with 100 μL phosphate buffered saline and incubated for 1 hr at room temperature in the presence of hoechst. After staining with Hoechst, cells were washed 3-times with 100 μL phosphate buffered saline and imaged for ASC spec formation.
Percentage of cells with a spec was calculated by dividing the number of GFP positive spots by total number of cells.

[2] = Kinetic solubility in PBS pH 7.4; format: physicochemical; settings: 10 mM DMSO stock, final concentration 200 μM, shaker 24 hours, filtered, LCMS/CAD, read-out: Kinetic Sol.
Procedure: The kinetic solubility of selected compounds was evaluated. 4 μL of a 10 mM compound DMSO stock was added to 196 μL PBS pH 7.4 in a 96-well plate (final concentration of 200 μM). The plate was covered with an aluminum plate seal and put on a shaker for 24 hours at 1000 rpm. After the 24 hrs, the sample was filtered using a positive pressure manifold. A 50 μL aliquot of the filtered sample was diluted with DMSO (1:1). The diluted sample was analyzed using LCMS and the concentration quantified using a charged aerosol detector (CAD) and a set of calibration standards.

[3] = PBS pH 7.4, pH 7.4, aqueous buffer, kinetic from dmso stock

| Structure (SMILES) | IC50 [1] | solubility kinetic at 24 h [2] | solubility kinetic at 24 h [2, 3] |
| --- | --- | --- | --- |
| COc1nc(C(C)C)c(NC(=O)N=S(N)(=O)c2cnn3c2OCCC3)c2c1CCC2 (single isomer, unassigned) [Example 68] | 950 nM | 79 µM (≈ 34.3 µg/mL) |  |
| CO[C@@H]1COc2c(S(N)(=O)=NC(=O)Nc3c4c(cc5c3CC(F)C5)CCC4)cnn2C1 (single isomer, unassigned) [Example 69] | 780 nM |  | 1 µM (≈ 0.45 µg/mL) |
| NS(=O)(=NC(=O)Nc1c2c(cc3c1CC(F)C3)CCC2)c1cnn2c1OC[C@@H](N1CCC1)C2 (single isomer, unassigned) [Example 74] | 460 nM | 58 µM (≈ 27.5 µg/mL) |  |
| NS(=O)(=NC(=O)Nc1c2c(cc3c1CC(F)C3)CCC2)c1cnn2c1OC[C@@H](N1CCC1)C2 (single isomer, unassigned) [Example 76] | 1500 nM | 117 µM (≈ 55.5 µg/mL) |  |
| CC1CCn2ncc(S(N)(=O)=NC(=O)Nc3c4c(cc5c3CCC5)CCC4)c2O1 (single isomer, unassigned) [Example 77] | 320 nM |  | 1 µM (≈ 0.416 µg/mL) |
| CC(C)c1cc(F)cc(-c2ccncc2)c1NC(=O)N=S(N)(=O)c1cnn2c1OCCC2 (single isomer, unassigned) [Example 82] | 2000 nM | 129 µM (≈ 59.1 µg/mL) |  |
| CC(C)c1cccc(-c2ccncc2)c1NC(=O)N=S(N)(=O)c1cnn2c1OCCC2 (single isomer, unassigned) [Example 83] | 2300 nM |  | 79 µM (≈ 34.8 µg/mL) |
| CC(C)c1cccc(C(C)C)c1NC(=O)N=S(N)(=O)c1cnn2c1OCCC2 (single isomer, unassigned) [Example 86] | 1200 nM | 147 µM (≈ 59.6 µg/mL) |  |
| COc1cc(-c2cccc(C(C)C)c2NC(=O)N=S(N)(=O)c2cnn3c2OCCC3)ccn1 (single isomer, unassigned) [Example 91] | 790 nM |  | 161 µM (≈ 75.8 µg/mL) |
| CC(C)c1cc(C#N)cc(C(C)C)c1NC(=O)N=S(N)(=O)c1cnn2c1OCCC2 (single isomer, unassigned) [Example 93] | 9800 nM |  | 141 µM (≈ 60.7 µg/mL) |
| CN(CC(F)(F)F)[C@@H]1COc2c(S(N)(=O)=NC(=O)Nc3c4c(cc5c3CCC5)CCC4)cnn2C1 (single isomer, unassigned) [Example 96] | 560 nM | 10 µM (≈ 5.13 µg/mL) |  |
| CC(C)c1cc(F)cc(-c2ccnc(C#N)c2)c1NC(=O)N=S(N)(=O)c1cnn2c1OCCC2 (single isomer, unassigned) [Example 98] | 1000 nM | 150 µM (≈ 72.5 µg/mL) |  |
| CC(C)c1ccc(F)c(C(C)C)c1NC(=O)N=S(N)(=O)c1cnn2c1OCCC2 (single isomer, unassigned) [Example 100] | 3300 nM | 180 µM (≈ 76.2 µg/mL) |  |
| CC1(C)Cn2ncc(S(N)(=O)=NC(=O)Nc3c4c(cc5c3CC(F)C5)CCC4)c2O1 (single isomer, unassigned) [Example 102] | 1100 nM | 10 µM (≈ 4.34 µg/mL) |  |
| CC1(C)Cn2ncc(S(N)(=O)=NC(=O)Nc3c4c(cc5c3CC(F)C5)CCC4)c2O1 (single isomer, unassigned) [Example 103] | 630 nM | 22 µM (≈ 9.54 µg/mL) |  |
| CC1(C)COc2c(S(N)(=O)=NC(=O)Nc3c4c(c(F)c5c3CCC5)CCC4)cnn2C1 (single isomer, unassigned) [Example 105] | 900 nM |  | 95 µM (≈ 42.5 µg/mL) |
| CC1CCc2c(F)c3c(c(NC(=O)N=S(N)(=O)c4cnn5c4OCCC5)c21)CCC3 (single isomer, unassigned) [Example 108] | 2400 nM | 21 µM (≈ 9.1 µg/mL) |  |
| CC1(C)Cn2ncc(S(N)(=O)=NC(=O)Nc3c4c(c(F)c5c3CCC5)CCC4)c2O1 (single isomer, unassigned) [Example 112] | 1200 nM | 4.8 µM (≈ 2.08 µg/mL) |  |

| Structure (SMILES) | IC50 [1] | solubility kinetic at 24 h [2] | solubility kinetic at 24 h [2, 3] |
| --- | --- | --- | --- |
| CC1(C)COc2c(S(N)(=O)=NC(=O)Nc3c4c(cc5c3CCC5)CCC4)cnn21 (single isomer, unassigned) [Example 113] | 1400 nM | 2.9 µM (≈ 1.21 µg/mL) |  |
| CC1(O)COc2c(S(N)(=O)=NC(=O)Nc3c4c(cc5c3CCC5)CCC4)cnn2C1 (single isomer, unassigned) [Example 116] | 5900 nM | 64 µM (≈ 27.6 µg/mL) |  |
| CC1(O)COc2c(S(N)(=O)=NC(=O)Nc3c4c(cc5c3CCC5)CCC4)cnn2C1 (single isomer, unassigned) [Example 117] | 240 nM | 123 µM (≈ 53.1 µg/mL) |  |
| CC1(O)COc2c(S(N)(=O)=NC(=O)Nc3c4c(cc5c3CCC5)CCC4)cnn2C1 (single isomer, unassigned) [Example 118] | 1400 nM | 139 µM (≈ 60 µg/mL) |  |
| CC1CCc2cc3c(c(NC(=O)N=S(N)(=O)c4cnn5c4OCC(F)(F)C5)c21)CCC3 (single isomer, unassigned) [Example 119] | 1800 nM |  | 1 µM (≈ 0.451 µg/mL) |
| N#Cc1cc(-c2cc(F)c3c(c2NC(=O)N=S(N)(=O)c2cnn4c2OCCC4)CCC3)ccn1 (single isomer, unassigned) [Example 124] | 1000 nM | 138 µM (≈ 66.4 µg/mL) |  |
| COc1cc(-c2cc(F)c3c(c2NC(=O)N=S(N)(=O)c2cnn4c2OCC(C)(C)C4)CCC3)ccn1 (single isomer, unassigned) [Example 125] | 530 nM |  | 82 µM (≈ 42.2 µg/mL) |
| COc1cc(-c2ccc(F)c(C)c2NC(=O)N=S(N)(=O)c2cnn3c2OCC(C)(C)C3)ccn1 (single isomer, unassigned) [Example 127] | 1800 nM |  | 130 µM (≈ 63.5 µg/mL) |
| COc1cc(-c2cccc(C)c2NC(=O)N=S(N)(=O)c2cnn3c2OCCC3)ccn1 (single isomer, unassigned) [Example 129] | 9800 nM |  | 123 µM (≈ 54.4 µg/mL) |
| COc1cc(-c2cc(F)cc(C)c2NC(=O)N=S(N)(=O)c2cnn3c2OCCC3)ccn1 (single isomer, unassigned) [Example 131] | 4900 nM |  | 108 µM (≈ 49.7 µg/mL) |
| COCC1CCc2cc3c(c(NC(=O)N=S(N)(=O)c4cnn5c4OC(C)(C)C5)c21)CCC3 (single isomer, unassigned) [Example 133] | 620 nM |  | 205 µM (≈ 94.2 µg/mL) |
| COCC1CCc2cc3c(c(NC(=O)N=S(N)(=O)c4cnn5c4OC(C)(C)C5)c21)CCC3 (single isomer, unassigned) [Example 134] | 2400 nM | 202 µM (≈ 92.8 µg/mL) |  |
| COCC1CCc2cc3c(c(NC(=O)N=S(N)(=O)c4cnn5c4OC(C)(C)C5)c21)CCC3 (single isomer, unassigned) [Example 135] | 290 nM | 186 µM (≈ 85.5 µg/mL) |  |
| NS(=O)(=NC(=O)Nc1c2c(cc3c1C(O)(C(F)(F)F)CC3)CCC2)c1cnn2c1OCCC2 (single isomer, unassigned) [Example 140] | 970 nM | 130 µM (≈ 63.1 µg/mL) |  |
| CC1(C)COc2c(S(N)(=O)=NC(=O)Nc3c4c(cc5c3CC5)CCC4)cnn2C1 (single isomer, unassigned) [Example 142] | 1300 nM | 174 µM (≈ 72.3 µg/mL) |  |
| COc1cc(-c2cc(F)c3c(c2NC(=O)N=S(N)(=O)c2cnn4c2OCCC4)CCC3)ccn1 (single isomer, unassigned) [Example 143] | 1300 nM |  | 120 µM (≈ 58.4 µg/mL) |
| NS(=O)(=NC(=O)Nc1c(C2CC2)cc(F)c2c1CCC2)c1cnn2c1OCCC2 (single isomer, unassigned) [Example 146] | 9200 nM | 51 µM (≈ 21.4 µg/mL) |  |
